Source: US20260058014A1, “CHARACTERIZATION OF TUMOR HET[…] A […]” (Foundation Medicine, Inc., priority 2022, published 2026)

Test system: EGFR driver alteration-positive NSCLC patients
Assay: Progression free survival from start of 1st line Osimertinib in a real-world clinico-genomic NSCLC cohort stratified by tumor heterogeneity score
Assay type: in vivo, human
Source text: Starting with a patient cohort of 15,035 patients, the data was filtered (for biopsy type and bait set). The data was then filtered to exclude data for patients for whom a computational tumor purity was less than or equal to 20% or for whom a computational tumor purity value was missing. The remaining patient data was divided according to whether the samples were early-stage specimens, late-stage specimens, or of ambiguous origin. For the late-stage specimens, data for patients who were first diagnosed prior to Jan. […] Finally, data was selected for N=135 1st line Osimertinib-treated, EGFR driver alteration-positive NSCLC patients for whom tumor samples were sequenced at most a year prior to start of therapy.
The group of 135 patients were then divided into three tertiles with 45 patients each. […] For patients without a subsequent line of therapy, the event date was the earliest progression event that occurred more than 14 days after the index date, or the date of death. • Censor date: patients with a subsequent line of therapy were censored at their last clinic note date if it occurred between the index date and the start date of the subsequent line of therapy plus 14 days. […]

Work on C=CC(=O)Nc1cc(Nc2nccc(-c3cn(C)c4ccccc34)n2)c(OC)cc1N(C)CCN(C)C [Osimertinib] yielded a mPFS (Score category High, EGFR CCF category Low, N=12) of 6.54 and a mPFS (Score category Low, EGFR CCF category High, N=39) of 16.01.
